In patent US8454934B2, “High molecular weight chelation structure” (Canadian Blood Services, priority 2006, dated 2013):

Columns and labels:
[1] = upon intravascular administration; cellular uptake and kidney clearance; cited from earlier work
mice = settings: cited from earlier work
[2] = Solubility in water and plasma, by absorbance versus wavelength (FIG. 20A); assay type: physicochemical; settings: absorbance plots FIG. 20A, HMW-ICL-670 was 20% (by weight) ICL-670
Description: FIGS. 20A and 20B are plots of absorbance of radiation in water versus wavelength of the radiation, for low molecular weight ICL670 (3 mg/ml) and the chelation structure of the present invention (denoted as HMW) dissolved in the water, in accordance with embodiments of the present invention. […] The measured absorbance increases with increasing concentration of the chelators/chelation structures dissolved in the water and is thus a measure of the solubility of the chelators/chelation structures in the water.

Structure (SMILES) | time to complete clearance from the vasculature [1] | LD50 (mice) | solubility in water [2]
CC(=O)N(O)CCCCCNC(=O)CCC(=O)N(O)CCCCCNC(=O)CCC(=O)N(O)CCCCCN.CS(=O)(=O)O [DFO, N-[5-(3-[(5-aminopentyl)-hydroxycarbamoyl]-propionamido)pentyl]-3-([5-(N-hydroxyacetamido)-pentyl]-carbamoyl)-propionohydroxamic acid monomethane sulphonate] | approximately 20 minutes | ~250 mg/kg | –
O=C(O)c1ccc(-n2nc(-c3ccccc3O)nc2-c2ccccc2O)cc1 [ICL670, 4-[3,5-bis(2-hydroxyphenyl)-1,2,4-triazol-1-yl]-benzoic acid] | – | – | insoluble in water
